Experimental data published in patent US10532066B2, “Surfactant lipids, compositions thereof, and uses thereof” (National Jewish Health, priority 2007, dated 2020).

Tests used:
BALB/c mice = test: Sepsis model: intravenous LPS, intratracheal phospholipids; assay type: in vivo, mouse; conditions: LPS 50 μg i.v., phospholipids 50 μg intratracheal, 3 h
Experimental: FIG. 10. Anionic phospholipids modulate lung inflammation induced by intravenously administered LPS. Phospholipids were dried under nitrogen and hydrated, and liposomes were formed using a Liposofast™. […] At the same time, LPS (50 μg) in 200 μl of PBS was intravenously administered to mice.
Next, the effect of phospholipids were examined in a sepsis model in mice. LPS (50 μG/200 μl) was intravenously administered to mice via the tail vein and phospholipids were administered intratracheally at the same time. Three hours after stimulation, BALF was collected (FIG. 10).

[1] = tested on: Respiratory Syncytial Virus (RSV); test: Cytopathic effects of RSV upon NHBE cells (photomicrography); assay type: cell-based
Experimental: Monolayers of NHBE cells were infected with RSV at a multiplicity of 3 for 72 h. Infections were performed on cells in either the absence or the presence of POPG (200 ug/ml). The cell monolayers were photographed at a magnification of 200×. Controls consisted of no viral challenge in either the presence or absence of POPG as indicated.
Monolayers of NHBE cells were infected with RSV at a multiplicity of 3 for 72 h. Infections were performed on cells in either the absence (b) or the presence (c,f) of POPG (200 ug/ml) and POPC (200 ug/ml) as indicated. Cells were photographed at a magnification of 200×. Controls (a,d,e) consisted of cell layers either not exposed to virus or exposed to POPG, and POPC in the absence of virus as indicated.
Monolayers of normal human bronchial epithelial cells were infected with RSV at a multiplicity of 0.5-1, in either the presence or absence of 200 ug/ml POPG, or 200 ug/ml POPC, as indicated.

TLR3 = molecular target: T1, TLR3 (Homo sapiens, UniProt O15455); test: TLR agonist IL-8 production in primary human neutrophils, TLR3; assay type: cell-based; set-up: endogenous in cells; host or cells: primary human neutrophils; conditions: poly IC, 5-24 h
T1 sequence (O15455 24-904): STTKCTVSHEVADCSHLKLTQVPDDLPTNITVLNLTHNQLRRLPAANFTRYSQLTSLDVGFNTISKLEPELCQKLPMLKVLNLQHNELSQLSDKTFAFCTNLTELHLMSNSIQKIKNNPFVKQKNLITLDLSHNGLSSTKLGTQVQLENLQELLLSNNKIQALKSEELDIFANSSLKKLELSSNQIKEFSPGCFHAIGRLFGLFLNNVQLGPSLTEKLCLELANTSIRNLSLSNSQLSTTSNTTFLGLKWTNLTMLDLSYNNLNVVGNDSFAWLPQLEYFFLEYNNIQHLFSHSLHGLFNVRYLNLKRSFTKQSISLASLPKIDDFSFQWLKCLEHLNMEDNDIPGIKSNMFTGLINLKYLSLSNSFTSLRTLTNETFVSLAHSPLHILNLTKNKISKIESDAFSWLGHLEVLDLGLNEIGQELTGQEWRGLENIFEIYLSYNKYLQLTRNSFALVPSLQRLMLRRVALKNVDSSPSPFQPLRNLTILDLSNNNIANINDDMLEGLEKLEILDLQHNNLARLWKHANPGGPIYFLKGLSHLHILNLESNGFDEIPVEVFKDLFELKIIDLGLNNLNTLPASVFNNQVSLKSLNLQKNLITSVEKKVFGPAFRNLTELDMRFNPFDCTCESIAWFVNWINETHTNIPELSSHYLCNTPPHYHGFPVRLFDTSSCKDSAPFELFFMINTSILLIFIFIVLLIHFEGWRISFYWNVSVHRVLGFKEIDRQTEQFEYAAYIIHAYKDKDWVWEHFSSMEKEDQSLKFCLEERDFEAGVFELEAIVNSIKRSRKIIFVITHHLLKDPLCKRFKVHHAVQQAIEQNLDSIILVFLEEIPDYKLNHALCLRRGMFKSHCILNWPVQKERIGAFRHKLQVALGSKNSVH
Experimental: In this experiment, multiple TLRs were stimulated with defined TLR agonists for 5-24 h as indicated, and the IL-8 production was measured. In each case the maximal stimulation by agonist is set at 100% and the antagonism by POPG is expressed as the relative % response. The Controls consist of no treatment, or treatment with POPG, in the absence of agonist as indicated. The agonists for the TLRs consist of Pam3Cys for TLR1/2, double stranded RNA (poly IC) for TLR3, Gram-negative lipopolysaccharide (LPS) for TLR4, and single stranded RNA (polyU) for TLR7/8.

RSV = RSV infection of mice; assay type: in vivo; conditions: 10^7 RSV with 200 ug/ml POPG, three days
Experimental: Groups of 8 mice were inoculated with 10^7 RSV in either the absence (RSV), or presence of 200 ug/ml POPG (RSV+POPG). Control experiments consisted of UV inactivated RSV (URV), or saline treatment (CON), or POPG treatment without virus (POPG). Three days after the inoculations, the animals were killed and the lungs harvested and processed for viral content by quantitative plaque assay (left panel of FIG. 41), and histopathology (right panel of FIG. 41)

Compound: CCCCCCCC/C=C\CCCCCCCC(=O)O[C@H](COC(=O)CCCCCCCCCCCCCCC)COP(=O)(O)OCC(O)CO (some centres unmarked) [POPG, palmitoyl-oleoyl-phosphatidylglycerol]
- KC levels in BALF (BALB/c mice): significantly attenuated
- MIP-2 levels in BALF (BALB/c mice): significantly attenuated
- TNF-α secretion in BALF (BALB/c mice): significantly inhibited
- infiltration of neutrophils in BALF (BALB/c mice): effectively inhibited
- killing of cells by RSV ([1]; multiplicity 0.5-1, 72 h, 200 ug/ml): prevents the killing
- cytopathic effects of RSV ([1]; multiplicity 3, 72 h, lipid 200 ug/ml): prevents the cytopathic effects
- activity of TLR3 (IL-8 production) (TLR3): inhibits
- RSV infection in vivo (lung viral content, histopathology) (RSV): suppresses
